Among the test systems are ACHN renal; HCC-2998 colon; HS 578T breast; MCF7 breast; MDA-MB-231 breast; RXF 393 renal; SK-MEL-28 melanoma; UACC-257 melanoma.
Common to all, as to assay: inhibition of tumour cell growth, NCI panel, 48 h

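Step 1: Grow cells in 96-well plates. Step 2: Expose to compound for 48 hours at 5 concentrations. Step 3: Interpolate endpoints linearly; if unreached, use highest concentration. GI50 marks 50% less growth. Definition used: TGI = concentration required for complete inhibition of growth.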

For `NS(=O)(=O)c1ccc(C2C3=C(CCCC3=O)OC3=C2C(=O)c2ccccc2C3=O)cc1` (stereo not given), the GI50 with ACHN renal was 1.24 µM; with HCC-2998 colon, 1.47 µM; with HS 578T breast, 1.27 µM; with MCF7 breast it was 0.221 µM; with MDA-MB-231 breast, 0.318 µM; in the test with RXF 393 renal, 1.45 µM. The figures for the GI50 in the test with SK-MEL-28 melanoma and in the test on UACC-257 melanoma were 1.42 µM and 0.275 µM, respectively. The TGI with ACHN renal was 2.53 µM; in the test with HCC-2998 colon it was 3.11 µM; in the test on HS 578T breast, 9.4 µM; in the test with MCF7 breast it was 0.752 µM; with MDA-MB-231 breast, 0.938 µM; in the test on RXF 393 renal it was 2.84 µM. Further, the TGI came out at 2.92 µM in the test with SK-MEL-28 melanoma and 0.922 µM in the test on UACC-257 melanoma.
For the compound `CN(C)/C=C/c1nnnn1-c1ccc(Cl)cc1`, the GI50 in the test on ACHN renal was 24.7 µM; in the test on HCC-2998 colon, 18.3 µM; in the test on HS 578T breast it was 17.5 µM; in the test with MCF7 breast, 6.03 µM; with MDA-MB-231 breast, 16.1 µM; with RXF 393 renal it was 7.55 µM. Further, the GI50 was 30.2 µM in the test with SK-MEL-28 melanoma and 35.6 µM with UACC-257 melanoma. Besides, the TGI was above 100 µM with ACHN renal; 34.5 µM in the test with HCC-2998 colon; 79.7 µM in the test on HS 578T breast; 24.8 µM with MCF7 breast; above 100 µM with MDA-MB-231 breast; 26.8 µM in the test on RXF 393 renal. The TGI with SK-MEL-28 melanoma and in the test on UACC-257 melanoma was above 100 µM each time.
As to `C=C1C(=O)O[C@H]2[C@H]1CC/C(CNS(=O)(=O)c1ccc3ccccc3c1)=C\CC[C@@]1(C)O[C@@H]21`, the GI50 was 0.514 µM in the test with ACHN renal; 3.68 µM in the test with HCC-2998 colon; 4.69 µM in the test on HS 578T breast; 0.943 µM in the test with MCF7 breast; 2.15 µM in the test with MDA-MB-231 breast; 1.3 µM in the test with RXF 393 renal. In addition, the GI50 was 1.57 µM with SK-MEL-28 melanoma and 1.9 µM in the test with UACC-257 melanoma. For the same compound, the TGI stood at 1.91 µM in the test on ACHN renal; 11.3 µM with HCC-2998 colon; 29.1 µM in the test on HS 578T breast; 2.62 µM with MCF7 breast; 5.36 µM with MDA-MB-231 breast; 2.65 µM in the test on RXF 393 renal. In addition, the TGI with SK-MEL-28 melanoma worked out at 3.57 µM; with UACC-257 melanoma, 4.54 µM.
Consider `COc1ccc(Nc2ccnc(NCCNc3ccnc4cc(Cl)ccc34)n2)cc1`, for which the GI50 in the test with ACHN renal was 2.27 µM; in the test on HCC-2998 colon, 1.5 µM; in the test on HS 578T breast, 2 µM; in the test on MCF7 breast, 1.53 µM; in the test with MDA-MB-231 breast it was 2.01 µM; with RXF 393 renal, 1.39 µM. Also, the GI50 in the test with SK-MEL-28 melanoma was 1.65 µM; in the test on UACC-257 melanoma it was 1.97 µM. The TGI came to 6.06 µM in the test with ACHN renal; 3.48 µM with HCC-2998 colon; 5.91 µM in the test with HS 578T breast; 5.2 µM with MCF7 breast; 6.71 µM in the test with MDA-MB-231 breast; 3.41 µM with RXF 393 renal. Also, the TGI was found to be 3.35 µM in the test on SK-MEL-28 melanoma and 4.25 µM with UACC-257 melanoma.
`N#Cc1cccc(C(=O)c2cnn(-c3ccc(F)cc3)c2N)c1`: the GI50 in the test on ACHN renal was above 25 µM; with HCC-2998 colon it was above 25 µM; in the test on HS 578T breast it was above 25 µM; in the test on MCF7 breast it was above 25 µM; with MDA-MB-231 breast, above 25 µM; with RXF 393 renal it was above 23.4 µM. For the same compound, the GI50 with SK-MEL-28 melanoma and in the test on UACC-257 melanoma was above 25 µM each time. The TGI with ACHN renal, with HCC-2998 colon, in the test with HS 578T breast, in the test with MCF7 breast, in the test on MDA-MB-231 breast and in the test on RXF 393 renal was above 25 µM throughout. In addition, the TGI with SK-MEL-28 melanoma and in the test on UACC-257 melanoma was above 25 µM in each case.
For `O=CN1N=C(c2ccc(Nc3ccnc4cc(Cl)ccc34)cc2)CC1c1ccccc1` (stereo not given), the GI50 in the test on ACHN renal was 4.21 µM; in the test on HCC-2998 colon it was 3.5 µM; in the test with HS 578T breast it was 3.77 µM; in the test with MCF7 breast, 3.42 µM; in the test on MDA-MB-231 breast, 2.43 µM; in the test on RXF 393 renal it was 2.2 µM. Moreover, the GI50 is 8.35 µM in the test with SK-MEL-28 melanoma and 10.1 µM in the test with UACC-257 melanoma. Also, the TGI in the test on ACHN renal came to 84.4 µM; in the test with HCC-2998 colon, 29.5 µM; in the test with HS 578T breast, 71.1 µM; in the test with MCF7 breast, 26.7 µM; in the test on MDA-MB-231 breast, 13.7 µM; in the test on RXF 393 renal it was 21.6 µM. Also, the TGI was 77.7 µM in the test with SK-MEL-28 melanoma and above 100 µM with UACC-257 melanoma.
For `O=c1[nH]cnc2c1nnn2C1OC(CO)C(O)C1O` (stereo not given), the GI50 was 1.04 µM in the test with ACHN renal; 2.65 µM in the test on HCC-2998 colon; 4.27 µM in the test with HS 578T breast; 1.41 µM in the test on MCF7 breast; 4.49 µM in the test on MDA-MB-231 breast; 1.62 µM in the test on RXF 393 renal. Further, the GI50 in the test on SK-MEL-28 melanoma is 16.7 µM; in the test with UACC-257 melanoma, 12.3 µM. The TGI in the test with ACHN renal was above 100 µM; in the test on HCC-2998 colon, 24.5 µM; in the test with HS 578T breast, 69.8 µM; in the test with MCF7 breast, above 78.8 µM; with MDA-MB-231 breast, above 100 µM; with RXF 393 renal it was 32.2 µM. Besides, the TGI in the test with SK-MEL-28 melanoma and in the test on UACC-257 melanoma was above 100 µM each time.
In the case of `Cc1nc2cncc(C#Cc3cncc(C(=O)Nc4ccc(CN5CCN(C)CC5)c(C(F)(F)F)c4)c3)c2nc1C`, the GI50 was 0.183 µM in the test on ACHN renal; 1.33 µM in the test with HCC-2998 colon; 0.193 µM with HS 578T breast; 0.841 µM with MCF7 breast; 0.229 µM in the test on MDA-MB-231 breast; 0.268 µM in the test with RXF 393 renal. The GI50 is 0.422 µM with SK-MEL-28 melanoma and 0.549 µM in the test with UACC-257 melanoma. The TGI in the test on ACHN renal worked out at 2.53 µM; in the test on HCC-2998 colon it was 20.5 µM; in the test with HS 578T breast, 1.61 µM; in the test with MCF7 breast it was 6.78 µM; in the test on MDA-MB-231 breast it was 1.03 µM; with RXF 393 renal, 1.76 µM. Moreover, the figures for the TGI in the test with SK-MEL-28 melanoma and with UACC-257 melanoma were 2.71 µM and 3.56 µM, respectively.
For `O=[N+]([O-])c1cc(O)c(O)cc1-c1cn2ccsc2n1`, the GI50 in the test on ACHN renal is 42.6 µM; with HCC-2998 colon, 43.7 µM; in the test on MCF7 breast it was 52.7 µM; in the test with MDA-MB-231 breast it was 59.2 µM; in the test on RXF 393 renal, above 100 µM; in the test on SK-MEL-28 melanoma, 55.5 µM. Further, the GI50 in the test on UACC-257 melanoma is above 100 µM. In addition, the TGI with ACHN renal was above 100 µM; with HCC-2998 colon, above 100 µM; in the test with HS 578T breast it was 36 µM; in the test with MCF7 breast, above 100 µM; with MDA-MB-231 breast, above 100 µM; with RXF 393 renal it was above 100 µM. Further, the TGI in the test on SK-MEL-28 melanoma and in the test with UACC-257 melanoma was above 100 µM in each case.
With `CCc1ccc(-c2ccc(=O)n(-c3ccc(S(N)(=O)=O)cc3)n2)cc1`, the GI50 in the test with ACHN renal was above 32.4 µM; in the test on HS 578T breast, 1.55 µM; in the test with MCF7 breast it was 1.46 µM; in the test on MDA-MB-231 breast, 14.6 µM; in the test with RXF 393 renal, 3.89 µM; in the test on SK-MEL-28 melanoma, 6.73 µM. The GI50 with UACC-257 melanoma was above 30.9 µM. In addition, the TGI with ACHN renal is above 100 µM; with HCC-2998 colon, above 100 µM; in the test on HS 578T breast, 23.6 µM; with MCF7 breast, above 43.5 µM; with MDA-MB-231 breast, above 100 µM; in the test with RXF 393 renal, 31.5 µM. For the same compound, the TGI with SK-MEL-28 melanoma and in the test on UACC-257 melanoma was above 100 µM each time.
Consider `Nc1c(C(=O)c2cccc(-c3ccc[n+]([O-])c3)c2)cnn1-c1ccc(F)cc1F`, for which the GI50 in the test on ACHN renal, in the test with HCC-2998 colon, in the test on HS 578T breast, with MCF7 breast, in the test with MDA-MB-231 breast and in the test on RXF 393 renal was above 25 µM throughout. Also, the GI50 in the test with SK-MEL-28 melanoma and with UACC-257 melanoma was above 25 µM in each case. The TGI in the test on ACHN renal, with HCC-2998 colon, with HS 578T breast, in the test on MCF7 breast, in the test on MDA-MB-231 breast and with RXF 393 renal was above 25 µM each time. Also, the TGI in the test with SK-MEL-28 melanoma and with UACC-257 melanoma was above 25 µM in each case.
On to `OCc1cccc(-c2ccc3ncc(-c4nc(NC5CC5)ncc4F)n3c2)c1`, for which the GI50 in the test with ACHN renal was 0.134 µM; in the test on HCC-2998 colon, 0.333 µM; with HS 578T breast it was 0.212 µM; with MCF7 breast it was 0.308 µM; in the test on MDA-MB-231 breast, 0.286 µM; in the test on RXF 393 renal it was 0.139 µM. Also, the GI50 in the test on SK-MEL-28 melanoma is 0.29 µM; with UACC-257 melanoma it was 0.372 µM. Further, the TGI turned out to be 1.24 µM in the test with ACHN renal; 2.17 µM in the test on HCC-2998 colon; 0.701 µM in the test on HS 578T breast; 1.19 µM in the test on MCF7 breast; 1.04 µM with MDA-MB-231 breast; 0.356 µM with RXF 393 renal. The TGI with SK-MEL-28 melanoma is 0.998 µM; in the test with UACC-257 melanoma it was 1.79 µM.
For `CCCCCCCCCCCCCC[P+](CCCCCC)(CCCCCC)CCCCCC`, the GI50 with ACHN renal is 0.26 µM; with HCC-2998 colon, 0.168 µM; with HS 578T breast, 0.041 µM; in the test with MCF7 breast, 0.146 µM; in the test with MDA-MB-231 breast, 0.0596 µM; in the test on RXF 393 renal, 0.141 µM. In addition, the GI50 in the test on SK-MEL-28 melanoma was 0.101 µM; in the test on UACC-257 melanoma, 0.0755 µM. The TGI in the test on ACHN renal came to 1.51 µM; in the test on HCC-2998 colon, 1.69 µM; with MCF7 breast, 1.3 µM; in the test on MDA-MB-231 breast it was 1.49 µM; in the test on RXF 393 renal it was 1.4 µM; with SK-MEL-28 melanoma it was 1.44 µM. The same compound came in with a TGI in the test with UACC-257 melanoma of 0.79 µM.

The record behind these values is PubChem BioAssay (NCI).
